From patent publication US10519247B2, “Targeting HER2 and HER3 with bispecific antibodies in cancerous cells” (Board of Regents, The University of Texas System, priority 2013, dated 2019) come the findings set out here.

Holding throughout (assay type): cell-based, human
In experiment [1] the test system is SK-BR-3 cells. Nature of the experiment: Proliferation assay (MTS), SK-BR-3. As to conditions: 5 days. Here is the method: (§1) Cells were plated in 96 well plates at a density of 2,500 cells per well and incubated overnight. […] Antibodies were used at a concentration of 50 nM unless otherwise indicated. Dimethyl sulfoxide or phosphate buffered saline (PBS) were used as vehicle controls for lapatinib or HRG-β1/antibodies, respectively. After 5 days of incubation in a 37° C. 5% CO2 incubator, cell proliferation was quantitated using CellTiter 96 AQeous One Solution Proliferation Assay kit (Promega, catalog no. G3580) according to the manufacturer's instructions.

The test system of experiment [2] is BT-474 cells. Nature of the experiment: Proliferation assay (MTS), BT-474. The note with it: 5 days. The procedure: as §1
Experiment [3] deals with SK-BR-3 cells. Nature of the experiment: Immunoblotting of cell lysates, SK-BR-3. Here is the method: (§2) Cells cultured to near confluence in 6 well plates were treated with lapatinib, HRG-β1 or antibodies as for proliferation assays. Following one or 24 hours incubation, cells were lysed using RIPA buffer (50 mM Tris, 150 mM NaCl, 0.5% sodium deoxycholate, 1% Triton X-100, 0.1% sodium dodecyl sulfate, 2 ug/mL aprotinin, 2 ug/mL leupeptin, 1 ug/mL pepstatin A, and 0.4 mg/mL pefabloc SC PLUS). Lysates were centrifuged for 20 minutes at 14,600 rpm at 4° C. and supernatants were collected. Protein concentrations in each lysate were determined using the BCA protein assay reagent (Pierce, catalog no. 23223). Total lysates were fractionated by SDS-PAGE and transferred onto polyvinylidene difluoride (PVDF) membranes (Millipore, catalog no. IPVH00010) or nitrocellulose membranes (Bio-Rad, catalog no 162.0145). Membranes were incubated with 5% bovine serum albumin in Tris-buffered saline with 0.1% Tween (TBST, pH 8.0) for 1 hour following transfer to block non-specific binding sites. Blocked membranes were incubated with primary antibodies overnight at 4° C. with agitation. Prior to incubation with the secondary antibodies conjugated to horseradish peroxidase, blots were washed three times (10 minutes/wash) with TB ST. Following incubation with secondary antibodies for 1 hour and washing, bound secondary antibody was detected using chemiluminescent detection regent (GE Healthcare, catalog no. RPN 2209/AF).
(In general: A western blot detects proteins with antibodies after separation by electrophoresis.)

For experiment [4], the system named is BT-474 cells. Nature of the experiment: Immunoblotting of cell lysates, BT-474. The procedure: as §2
In experiment [5] the test system is SK-BR-3 cells. Nature of the experiment: Flow cytometry of cell surface HER2 and HER3, SK-BR-3. The note with it: 1 μM lapatinib, 24 hours. Here is the method:
(§3) Cells were treated with 1 μM lapatinib (Lap), medium (Med) or vehicle control (DMSO) for 24 hours.
(§4) The methodology used to determine HER2 and HER3 levels by flowcytometry is as follows, unless otherwise indicated. Antibodies were labeled with either Alexa Fluor® 647 carboxylic acid, succinimidyl ester (Life Technologies, Catalog # A-20173) or Alexa Fluor® 488 carboxylic acid, succinimidyl ester (Life Technologies, Catalog # A-10235) using methods recommended by the manufacturer. Following the labeling reaction, antibodies were extensively dialyzed against PBS to remove unincorporated Alexa dye. Cells were seeded at a density of 100,000 cells per well in 24 well plates, incubated overnight, and subsequently treated with either 1 μM lapatinib or vehicle control (DMSO) for 24 hours at 37° C. in a CO2 incubator. […] Following incubation, cells were trypsinized, washed, and suspended in PBS. Stained cells were analyzed using a BD FACScalibur and data processed using FlowJo (Tree Star).

Experiment [6] concerns BT-474 cells. Nature of the experiment: Flow cytometry of cell surface HER2 and HER3, BT-474. The note with it: 1 μM lapatinib, 24 hours. Here is the method: as §3, §4
(In general: In flow cytometry, cells or beads pass a laser one at a time.)

In experiment [7] the test system is HCC1419 cells. Nature of the experiment: Proliferation assay (MTS), HCC1419. As to conditions: 5 days. The procedure: as §1
In experiment [8] the test system is SK-BR-3 cells. Nature of the experiment: Fluorescence microscopy of intracellular trafficking. As to conditions: 50 nM. An excerpt: The combined pulse plus chase times are indicated on the left margin. Anti-HER3 or HER2/HER3 antibodies were detected with Alexa 555-labeled secondary antibody (pseudocolored red in overlay) and anti-EEA-1 antibody with Alexa 647-labeled secondary antibody (pseudocolored green in overlay). […] Scale bars=2 μm.
Cells were fixed, permeabilized and stained for LAMP-1. Anti-HER3 or HER2/HER3 antibodies were detected with Alexa 555-labeled secondary antibody (pseudocolored red in overlay) and anti-LAMP-1 antibody with Alexa 488-labeled secondary antibody (pseudocolored green in overlay). […] Scale bars=2 μm.
For fixation, cells were treated with 1.7% (w/v) paraformaldehyde for 10 minutes at 37° C. and then permeabilized with 0.05% (v/v) saponin for 10 minutes at room temperature in PBS. […] After blocking for 30 minutes with goat serum (Sigma-Aldrich, catalog no. G6767), bound primary antibodies were detected by incubating cells with the following secondary antibody conjugates for 25 minutes at room temperature: Alexa 555-labeled goat anti-human IgG (H+L) (Life Technologies, catalog no. A21433), Alexa 647-labeled goat anti-mouse IgG (H+L) (Life Technologies, catalog no. A21236) and Alexa 488-labeled goat anti-rabbit IgG (H+L) (Life Technologies, catalog no. A11034). […]

The mark [9] stands for this setting: lapatinib 50 nM-1 μM, no heregulin.
[10] abbreviates: 1 μM lapatinib + heregulin 6.25 nM.
Where [11] appears, read: 50 nM antibody + heregulin 6.25 nM.
The mark [12] stands for this setting: 50 nM antibody + 1 μM lapatinib + heregulin 6.25 nM.
Setting [13] is: 50 nM antibody, no heregulin, no lapatinib.
Setting [14] is: 50 nM antibody, one hour, versus trastuzumab, pertuzumab, TAb6 or PAb6, not sustained at 24 hours.

`CS(=O)(=O)CCNCc1ccc(-c2ccc3ncnc(Nc4ccc(OCc5cccc(F)c5)c(Cl)c4)c3c2)o1` [lapatinib, reference compound]: the “proliferation, lapatinib alone” value in experiment [1] (setting [9]) and in experiment [2] (setting [9]) was “inhibition of proliferation” in each case. In addition, the “proliferation, lapatinib plus heregulin” value in experiment [1] (lapatinib + heregulin 6.25 nM) and in experiment [2] (lapatinib + heregulin 6.25 nM) was “growth inhibition was ablated” throughout. Besides, the “inhibition of HER3, Akt and Erk phosphorylation, lapatinib plus heregulin” value in experiment [3] (setting [10]) and in experiment [4] (setting [10]) was “partially reversed” throughout. Besides, the “HER3, Akt and Erk phosphorylation, lapatinib alone” value in experiment [3] (1 μM lapatinib, 1 or 24 hours) is “potent inhibition”; in experiment [4] (1 μM lapatinib, 1 or 24 hours), “potent inhibition”. Besides, the “HER2 levels on the plasma membrane” value in experiment [5] is recorded as “upregulation”; in experiment [6], “not upregulated”. Moreover, the “HER3 levels on the plasma membrane” value in experiment [5] and in experiment [6] was “upregulation” each time.
On to heregulin [reference compound], for which the “proliferation in the presence of heregulin alone” value in experiment [1] (setting [11]) is listed as “reduced proliferation”; in experiment [2] (heregulin 6.25 nM), “trend towards heregulin-stimulated proliferation”; in experiment [7] (heregulin 6.25 nM), “increased proliferation”.

B1: Ab6: bivalent anti-HER3 antibody which competes with heregulin for binding to HER3 (antibody, V domains shown)
VH: QVQLLESGGGLVQPGGSLRLSCAASGFTFSHYVMAWVRQAPGKGLEWVSSISSSGGWTLYADSVKGRFTISRDNSKNTLYLQMNSLRAEDTAVYYCTRGLKMATIFDYWGQGTLVTVSS
VL: DIQLTQPASVSGSPGQSITISCTGTSSDVGSYNVVSWYQQHPGKAPKLIIYEVSQRPSGVSNRFSGSKSGNTASLTISGLQTEDEADYYCCSYAGSSIFVIFGGGTKVTVL
On to B1, for which the “proliferation in the presence of heregulin and lapatinib” value in experiment [1] (setting [12]), in experiment [2] (setting [12]) and in experiment [7] (setting [12]) was “anti-proliferative effects” each time. The proliferation result is reported as “reduced proliferation” in experiment [1] (setting [13]), “the effects were not significant” in experiment [2] (setting [13]) and “reduced proliferation” in experiment [7] (setting [13]). Further, the “proliferation in the presence of heregulin” value in experiment [2] (setting [11]) and in experiment [7] (setting [11]) was “ablated the inhibitory effects” each time. Further, the “pAkt levels in the presence of heregulin” value in experiment [3] (50 nM antibody + heregulin 6.25 nM, 24 hours) is given as “a reduction”. For the same molecule, the “pErk levels at one hour” value in experiment [3] (setting [14]) and in experiment [4] (setting [14]) was “lower” in each case. Further, the “localization following 15 minutes of treatment” value in experiment [8] is recorded as “internalized into early endosomes”. The “localization within one hour of treatment” value in experiment [8] (15 minutes pulse, 45 minutes chase) is “present in LAMP-1+ lysosomes”.
